Patent US8940768B2, “Antifungal triazole derivatives” (Daewoong Pharmaceutical Co., Ltd., priority 2010, dated 2015)
Values after ≈ are worked out from the molar mass of the structure shown. Read-outs that look alike come from different tables or passages of the source.

What was measured:
Assay type in all cases: cell-based
Candida krusei = assay: in vitro antifungal activity (MIC80), Candida krusei; conditions: Pichia kudriavzevii; 80% growth inhibition vs negative control; RPMI 1640; read 24 hrs after application; read-out: Antifungal Activity (MIC80) C. krusei
Description: (§1) The compounds of the present invention were evaluated for inhibitory activity against yeast molds including Candida albicans, Candida glabrata, Candida krusei, Candida tropicalis, Candida parapsilosis, and Cryptococcus neoformans, and filamentous fungi including Aspergillus fumigatus, Trichophyton mentagrophytes (obtained from KCTC (Korean Collection for Type Cultures), and Trichophyton rubrum (obtained from KCCM (Korean Culture Center of Microorganisms). All the strains, but Trichophyton mentagrophytes and Trichophyton rubrum, were purchased from the ATCC (American Type Culture Collection).
(§2) Of the strains used in this test, Candida albicans, Candida glabrata, Candida krusei, Candida tropicalis, Candida parapsilosis, Trichophyton mentagrophytes and Trichophyton rubrum were inoculated into sabouraud dextrose agars (Difco, BD-0109), Cryptococcus neoformans into a yeast mold agar (YM agar, Difco, 271210), and Aspergillus fumigatus into a malt extract agar (Difco, 211220), before incubation at 35° C. for two to ten days.
(§3) From the agars on which the yeast molds were grown, single colonies were picked up, and each was sufficiently suspended in 5 mL of already prepared, 0.85% sterile saline. After correction of the absorbance to 0.108 at 530 nm, each of the suspensions was diluted to a ratio of 1:50 in an RPMI (Roswell park memorial institute) 1640 medium and then to a ratio of 1:20 to prepare an inoculum having a cell density of from 1.0×10^3 to 5.0×10^3CFU/mL. The cell density was adjusted into […]˜5.0×10^4 CFU/mL for Aspergillus fumigates and 0.4×10^4˜5.0×10^4 CFU/mL for both Trichophyton mentagrophytes and Trichophyton rubrum.
(§4) The antifungal agent samples were prepared by diluting the active compounds in an RPMI 1640 medium to a serial density of from 0.0156 to 32 μg/mL. In this context, dimethylsulfoxide (DMSO) was used as an excipient at a final concentration of 1% (v/v). The serial dilutions were aliquoted at a volume of 0.1 mL and applied to 0.1 mL of the aliquots of each inoculum, followed by incubation.
(§5) With the naked eyes, an observation was made of all of the yeast molds, but Cryptococcus neoformans 24 hrs after the application, Cryptococcus neoformans and Aspergillus fumigatus 48 hrs after the application, and Trichophyton mentagrophytes and Trichophyton rubrum five days after the application to examine whether the fungi grew or not. In addition, Alamarblue™ as used to determine the concentrations of the compounds of the present invention at which the growth of the microorganisms was 80% inhibited compared to that of the negative control. All experiments were performed in duplicate for each of the test concentration groups.

Candida parapsilosis = assay: in vitro antifungal activity (MIC80), Candida parapsilosis; conditions: Lodderomyces parapsilosis; 80% growth inhibition vs negative control; RPMI 1640; read 24 hrs after application; read-out: Antifungal Activity (MIC80) C. parapsilosis
Description: as §1, §2, §3, §4, §5

[1] = test system: Trichophyton mentagrophytes; assay: in vitro antifungal activity (MIC80), Trichophyton mentagrophytes; conditions: 120 h, 80% growth inhibition vs negative control, RPMI 1640, read five days after application
Description: as §1, §2, §3, §4, §5

Cryptococcus neoformans = assay: in vitro antifungal activity (MIC80), Cryptococcus neoformans; conditions: 80% growth inhibition vs negative control, RPMI 1640, read 48 hrs after application
Description: as §1, §2, §3, §4, §5

Trichophyton rubrum = assay: in vitro antifungal activity (MIC80), Trichophyton rubrum; conditions: 120 h, 80% growth inhibition vs negative control, RPMI 1640, read five days after application
Description: as §1, §2, §3, §4, §5

Candida tropicalis = assay: in vitro antifungal activity (MIC80), Candida tropicalis; conditions: 80% growth inhibition vs negative control, RPMI 1640, read 24 hrs after application, read-out: Antifungal Activity (MIC80) C. tropicalis
Description: as §1, §2, §3, §4, §5

Candida glabrata = assay: in vitro antifungal activity (MIC80), Candida glabrata; conditions: Nakaseomyces glabratus, 24 h, read-out: Antifungal Activity (MIC80) C. grabrata
Description: as §1, §2, §3, §4, §5

Aspergillus fumigatus = assay: in vitro antifungal activity (MIC80), Aspergillus fumigatus; conditions: 80% growth inhibition vs negative control, RPMI 1640, read 48 hrs after application
Description: as §1, §2, §3, §4, §5

Candida albicans = assay: in vitro antifungal activity (MIC80), Candida albicans; conditions: 80% growth inhibition vs negative control, RPMI 1640, read 24 hrs after application
Description: as §1, §2, §3, §4, §5

[2] = Table 1, read-out: Antifungal Activity (MIC80) C. albicans
[3] = Table 2, read-out: Antifungal Activity (MIC80) Candida albicans

| Structure (SMILES) | MIC80 (Candida krusei) [µg/mL] | MIC80 (Candida glabrata) [µg/mL] | MIC80 (Aspergillus fumigatus) [µg/mL] | MIC80 (Candida albicans; [2]) [µg/mL] | MIC80 (Candida albicans; [3]) [µg/mL] | further results |
| --- | --- | --- | --- | --- | --- | --- |
| C[C@@H](N1CCC(Oc2ccc(F)cc2)CC1)[C@](O)(Cn1cncn1)c1ccc(F)cc1F [Example 1, (2R,3R)-2-(2,4-difluorophenyl)-3-(4-(4-fluorophenoxy)piperidin-1-yl)-1-(1H-1,2,4-triazol-1-yl)butan-2-ol] | 0.062 (≈ 0.139 µM) | 0.25 (≈ 0.56 µM) | ≤ 0.125 | ≤ 0.015 | – | MIC80 (Candida parapsilosis): ≤ 0.015 µg/mL; MIC80 [1]: ≤ 0.125 µg/mL; MIC80 (Cryptococcus neoformans): ≤ 0.015 µg/mL; MIC80 (Trichophyton rubrum): ≤ 0.125 µg/mL; MIC80 (Candida tropicalis): 0.062 µg/mL (≈ 0.139 µM) |
| C[C@@H](N1CCC(Oc2ccc(Cl)cc2)CC1)[C@](O)(Cn1cncn1)c1ccc(F)cc1F [Example 7, (2R,3R)-3-(4-(4-chlorophenoxy)piperidin-1-yl)-2-(2,4-difluorophenyl)-1-(1H-1,2,4-triazol-1-yl)butan-2-ol] | – | – | ≤ 0.125 | ≤ 0.015 | – | – |
| C[C@@H](N1CCC(Oc2ccc(C(F)(F)F)cc2)CC1)[C@](O)(Cn1cncn1)c1ccc(F)cc1F [Example 13, (2R,3R)-2-(2,4-difluorophenyl)-1-(1H-1,2,4-triazol-1-yl)-3-(4-(4-(trifluoromethyl)phenoxy)piperidin-1-yl)butan-2-ol] | – | – | 1 (≈ 2.01 µM) | ≤ 0.015 | – | – |
| C[C@@H](N1CCC(Oc2ncccn2)CC1)[C@](O)(Cn1cncn1)c1ccc(F)cc1F [Example 29, (2R,3R)-2-(2,4-difluorophenyl)-3-(4-(pyrimidin-2-yloxy)piperidin-1-yl)-1-(1H-1,2,4-triazol-1-yl)butan-2-ol] | 0.5 (≈ 1.16 µM) | 1 (≈ 2.32 µM) | 1 (≈ 2.32 µM) | ≤ 0.015 | – | MIC80 (Candida parapsilosis): 0.062 µg/mL (≈ 0.144 µM); MIC80 [1]: 0.062 µg/mL (≈ 0.144 µM); MIC80 (Cryptococcus neoformans): ≤ 0.015 µg/mL; MIC80 (Trichophyton rubrum): ≤ 0.125 µg/mL; MIC80 (Candida tropicalis): 0.25 µg/mL (≈ 0.581 µM) |
| C[C@@H](N1CCC(Nc2ccc(F)cn2)CC1)[C@](O)(Cn1cncn1)c1ccc(F)cc1F [Example 58, (2R,3R)-2-(2,4-difluorophenyl)-3-(4-((5-fluoropyridin-2-yl)amino)piperidin-1-yl)-1-(1H-1,2,4-triazol-1-yl)butan-2-ol] | 0.062 (≈ 0.139 µM) | 1 (≈ 2.24 µM) | 0.125 (≈ 0.28 µM) | ≤ 0.015 | – | MIC80 (Candida parapsilosis): 0.062 µg/mL (≈ 0.139 µM); MIC80 [1]: ≤ 0.125 µg/mL; MIC80 (Trichophyton rubrum): ≤ 0.125 µg/mL; MIC80 (Candida tropicalis): 0.125 µg/mL (≈ 0.28 µM) |
| C[C@@H](N1CCC(Nc2ncc(F)cn2)CC1)[C@](O)(Cn1cncn1)c1ccc(F)cc1F [Example 63, (2R,3R)-2-(2,4-difluorophenyl)-3-(4-((5-fluoropyrimidin-2-yl)amino)piperidin-1-yl)-1-(1H-1,2,4-triazol-1-yl)butan-2-ol] | ≤ 0.062 | 1 (≈ 2.23 µM) | 0.25 (≈ 0.559 µM) | ≤ 0.015 | – | MIC80 [1]: ≤ 0.004 µg/mL; MIC80 (Trichophyton rubrum): 0.015 µg/mL (≈ 0.0335 µM) |
| C[C@@H](OC1CCN(c2ncc(Br)cn2)CC1)[C@](O)(Cn1cncn1)c1ccc(F)cc1F [Example 120, (2R,3R)-3-((1-(5-bromopyrimidin-2-yl)piperidin-4-yl)oxy)-2-(2,4-difluorophenyl)-1-(1H-1,2,4-triazol-1-yl)butan-2-ol] | – | – | – | – | ≤ 0.015 | – |
| C[C@@H](NC1CCN(c2ccccc2)CC1)[C@](O)(Cn1cncn1)c1ccc(F)cc1F [Example 123, (2R,3R)-2-(2,4-difluorophenyl)-3-((1-phenylpiperidin-4-yl)amino)-1-(1H-1,2,4-triazol-1-yl)butan-2-ol] | – | – | – | – | ≤ 0.015 | – |
| C[C@@H](NC1CCN(c2ccc(C(F)(F)F)cc2)CC1)[C@](O)(Cn1cncn1)c1ccc(F)cc1F [Example 134, (2R,3R)-2-(2,4-difluorophenyl)-1-(1H-1,2,4-triazol-1-yl)-3-((1-(4-(trifluoromethyl)phenyl)piperidin-4-yl)amino)butan-2-ol] | – | – | – | – | ≤ 0.015 | – |
| C[C@@H](NC1CCN(c2ccc(C#N)cc2)CC1)[C@](O)(Cn1cncn1)c1ccc(F)cc1F [Example 137, 4-(4-(((2R,3R)-3-(2,4-difluorophenyl)-3-hydroxy-4-(1H-1,2,4-triazol-1-yl)butan-2-yl)amino)piperidin-1-yl)benzonitrile] | – | – | – | – | ≤ 0.015 | – |
| C[C@@H](NC1CCN(c2ccc(F)cn2)CC1)[C@](O)(Cn1cncn1)c1ccc(F)cc1F [Example 146, (2R,3R)-2-(2,4-difluorophenyl)-3-((1-(5-fluoropyridin-2-yl)piperidin-4-yl)amino)-1-(1H-1,2,4-triazol-1-yl)butan-2-ol] | – | – | – | – | ≤ 0.015 | – |
| C[C@@H](NC1CCN(c2ccc(Cl)cn2)CC1)[C@](O)(Cn1cncn1)c1ccc(F)cc1F [Example 147, (2R,3R)-3-((1-(5-chloropyridin-2-yl)piperidin-4-yl)amino)-2-(2,4-difluorophenyl)-1-(1H-1,2,4-triazol-1-yl)butan-2-ol] | – | – | – | – | ≤ 0.015 | – |
| Cc1cc(C(F)(F)F)cnc1N1CCC(N[C@H](C)[C@](O)(Cn2cncn2)c2ccc(F)cc2F)CC1 [Example 148, (2R,3R)-2-(2,4-difluorophenyl)-3-((1-(3-methyl-5-(trifluoromethyl)pyridin-2-yl)piperidin-4-yl)amino)-1-(1H-1,2,4-triazol-1-yl)butan-2-ol] | ≤ 0.062 | 0.25 (≈ 0.49 µM) | 1 (≈ 1.96 µM) | ≤ 0.015 | – | – |
| C[C@@H](NC1CCN(c2ncccn2)CC1)[C@](O)(Cn1cncn1)c1ccc(F)cc1F [Example 149, (2R,3R)-2-(2,4-difluorophenyl)-3-((1-(pyrimidin-2-yl)piperidin-4-yl)amino)-1-(1H-1,2,4-triazol-1-yl)butan-2-ol] | – | – | – | – | ≤ 0.015 | – |
| C[C@@H](NC1CCN(c2ncc(F)cn2)CC1)[C@](O)(Cn1cncn1)c1ccc(F)cc1F [Example 151, (2R,3R)-2-(2,4-difluorophenyl)-3-((1-(5-fluoropyrimidin-2-yl)piperidin-4-yl)-amino)-1-(1H-1,2,4-triazol-1-yl)butan-2-ol] | 0.25 (≈ 0.559 µM) | 1 (≈ 2.23 µM) | 1 (≈ 2.23 µM) | ≤ 0.015 | – | MIC80 (Candida parapsilosis): 0.125 µg/mL (≈ 0.279 µM); MIC80 [1]: ≤ 0.004 µg/mL; MIC80 (Trichophyton rubrum): 0.015 µg/mL (≈ 0.0335 µM); MIC80 (Candida tropicalis): 0.25 µg/mL (≈ 0.559 µM) |
| C[C@@H](N(C)C1CCN(c2ccccc2)CC1)[C@](O)(Cn1cncn1)c1ccc(F)cc1F [Example 155, (2R,3R)-2-(2,4-difluorophenyl)-3-(methyl(1-phenylpiperidin-4-yl)amino)-1-(1H-1,2,4-triazol-1-yl)butan-2-ol] | – | – | – | – | ≤ 0.015 | – |
| C[C@@H](N(C)C1CCN(c2ccc(F)cc2)CC1)[C@](O)(Cn1cncn1)c1ccc(F)cc1F [Example 158, (2R,3R)-2-(2,4-difluorophenyl)-3-((1-(4-fluorophenyl)piperidin-4-yl)(methyl)amino)-1-(1H-1,2,4-triazol-1-yl)butan-2-ol] | – | – | – | – | ≤ 0.015 | – |
| C[C@@H](N(C)C1CCN(c2ccc(Cl)cc2)CC1)[C@](O)(Cn1cncn1)c1ccc(F)cc1F [Example 161, (2R,3R)-3-((1-(4-chlorophenyl)piperidin-4-yl)(methyl)amino)-2-(2,4-difluorophenyl)-1-(1H-1,2,4-triazol-1-yl)butan-2-ol] | – | – | – | – | ≤ 0.015 | – |
| C[C@@H](N(C)C1CCN(c2ccc(C(F)(F)F)cc2)CC1)[C@](O)(Cn1cncn1)c1ccc(F)cc1F [Example 167, (2R,3R)-2-(2,4-difluorophenyl)-3-(methyl(1-(4-(trifluoromethyl)phenyl)piperidin-4-yl)amino)-1-(1H-1,2,4-triazol-1-yl)butan-2-ol] | – | – | – | – | ≤ 0.015 | – |
| C[C@@H](N(C)C1CCN(c2ccc(C#N)cc2)CC1)[C@](O)(Cn1cncn1)c1ccc(F)cc1F [Example 170, 4-(4-(((2R,3R)-3-(2,4-difluorophenyl)-3-hydroxy-4-(1H-1,2,4-triazol-1-yl)butan-2-yl)(methyl)amino)piperidin-1-yl)benzonitrile] | – | – | – | – | ≤ 0.015 | – |
